The text below walks through data of patent US12011433B2 (UNIVERSITÁ DEGLI STUDI DI BARI “ALDO MORO”, priority 2016, dated 2024).

Read-outs that look alike come from different tables or passages of the source.

Data set [1] addresses COX-2 (Homo sapiens, UniProt P35354). Description: colorimetric COX Inhibitor screening Assay (peroxidase component, oxidized TMPD at 590 nm). It counts as biochemical. As to the method: Human cyclooxygenase inhibitory activity was determined by a colorimetric COX Inhibitor screening Assay which measures the peroxidase component of the cyclooxygenases, monitoring the appearance of oxidized N,N,N′,N′-tetramethyl-p-phenylenediamine (TMPD) at 590 nm.

The subject of another data set is Caco-2 cells. Description: Caco-2 monolayer efflux assay, Apparent Permeability (Papp), with or without GLUT-1 inhibitor phloretin. It is filed as in vitro ADME, Human. As to the method: (§1) In a monolayer efflux assay, the Apparent Permeability (Papp) in both basolateral to apical [Papp(B→A)] and apical to basolateral [Papp(A→B)] directions was determined for each compound (FIG. 2). Human colonic adenocarcinoma cell line (Caco-2) presents a facilitated transport system at the apical and basolateral surface. Caco-2 cells express high levels of GLUT-1 that are localized to the basolateral membrane and transport glucose to the serosal side.
(§2) The Papp(B→A) flux of each compound alone or in the presence of phloretin, a GLUT-1 inhibitor, has been determined. Since GLUT-1 is express in the basolateral compartment a high B→A flux means that the transport is GLUT-1 mediated because B→A flux represents the active transport.
(§3) A→B flux, which represents the passive transport, has also been determined for each compound (Table 2).

The test system of the next data set is GLUT-1. Described as above. The note with it: human. It counts as in vitro ADME, Human. As to the method:
as §1, §2, §3

The nature of data set [2]: GALMOF0 chemical stability in buffers by HPLC. It is filed as physicochemical. The following applies: pH 1, 3, 7.3 and 8, 37° C., till 60 min. The method, then: HPLC analyses were performed to determine the chemical stability and the purity grade of GALMOF0 as a representative compound of the set.
Aminica column was used, CH3CN/10 mM Tris-HCl (pH=8) (15:85) was used as mobile phase, T=40° C.; λ=254 nm.
200 μL of 2.5 mg/mL di GALMOF0 in CH3CN were added to 1800 μL of a buffer (pH=1, 3, 7.3 and 8). Each sample was kept stirred at 37° C. Buffer with pH=1 and 3, obtained with 0.1N HCl and 50 mM HEPES, was selected to simulate the chemical stability at gastric level, whereas pH=7.3 and 8, obtained by 50 mM TRIS-HCl, simulated its stability in the blood and gut, respectively.
At 15, 30, 60 min and 48 h, 300 μL of the sample were withdraw, diluted with 300 μL of CH3CN (final concentration=[…]) and tested by HPLC.

A short description of data set [3]: GALMOF0 metabolic stability, incubation with rat liver microsomes. It counts as in vitro ADME. The method, then: GALMOF0 metabolic stability was determined through its incubation with rat liver microsomes and monitoring the disappearance of its chromatogram peak within 30 min.
The in vitro test was carried out in the presence of rat liver S9 fraction (Tebu-bio, Milan, Italy).
Briefly, GALMOF0 (10 μM) in 100 mM of phosphate buffer (pH=7.4) was mixed with the NADPH regeneration system to a final concentration of 1.3 mM NADP^+, 3.3 mM glucose 6-phosphate and 0.4 U/ml glucose 6-phosphate dihydrogenase and 3.3 mM MgCl2. The experiment started with the addition of rat microsomes (1 mg/ml) that were incubated for 30 min at 37° C. The reaction was blocked by adding an equal volume of cold CH3CN. The samples were centrifuged at 4,600 rpm for 15 min at 4° C. The supernatant was separated and the organic phase analysed by HPLC in the same conditions used for the samples of the “chemical stability study”.
The residual GALMOF0 percentage after 30 min was calculated according the following equation: Residual GALMOF0(%) at 30 min=Cmicr+NADPH/Cmicr×100 where Cmicr+NADPH is the GALMOF0 concentration after the incubation with the microsomes and the NADPH regeneration system (FIG. 8); Cmicr is the GALMOF0 concentration after the incubation with only the microsomes (FIG. 9).
(Liver microsomes are vesicles of endoplasmic reticulum, rich in cytochrome P450 enzymes.)

Another data set has as its system BV2 microglial cells. Description: BV2 microglial cell viability, MTT reduction assay. The following applies: 24 h, P6 0.5 and 1 μM, mofezolac 0.1 and 0.5 μM, alone or with LPS. It counts as cell-based. The method, then:
(§4) Cells were then incubated for different times at 37° C. with LPS, as pro-inflammatory stimulus. Experiments included cells grown in medium alone (control).
Cell viability of microglial cells was quantified using the MTT reduction assay. The cells (8×10^3/well) were grown in 96-well plates (Becton Dickinson Labware) in complete medium and treated with different concentration of COX inhibitors, in presence or absence of LPS. Untreated cells were used as a control. A PBS 1× solution of MTT (5 mg/mL) was prepared and added to the cell medium at a final concentration of 0.5 mg/mL. Cells were incubated for 4 h at 37° C. and 5% CO2 to allow the MTT metabolism. The formazan crystals formed (from MTT) into the cells were solubilized with DMSO (Sigma-Aldrich). The levels of MTT formazan were determined measuring the optical density at λ=560 nm and subtracting the background (λ=670 nm) with a Victor Multiplate Reader (Wallac). Optical density was directly correlated to cell quantity.
In general terms: Tetrazolium dyes change colour on reduction, which living cells bring about.

The next data set concerns the target COX-1 (Mus musculus (Mouse), UniProt P22437). The experiment in a line: COX-1 expression in LPS-treated BV2 microglial cells, western blotting. It is filed as cell-based. The following applies: for COX-1 expression reduction: LPS-activated BV2 cells. The method, then:
as §4
(§5) The tissue and cell culture lysates were vortexed for 15-20 s and, then, centrifuged at 12,800×g for 20 min. The protein concentration in the supernatant was spectrophotometrically determined by Bradford's protein assay (Bradford, 1976). Protein samples were diluted with sample buffer (0.5 M Tris-HCl pH=6.8, 10% glycerol, 10% (w/v) SDS, 5% 2-mercaptoethanol, 0.05% (w/v) bromophenol blue) and then boiled for 3 min. Proteins (25 μg/lane) and prestained standards (BioRad Laboratories, Hercules, CA, USA) were loaded on 7% or 12% SDS precast polyacrylamide gels (BioRad Laboratories).
After electrophoresis, the resolved proteins were transferred from the gel to nitrocellulose membranes. A blotting buffer [20 mMTris/150 mM glycine, pH=8.0, 20% (v/v) methanol] was used for gel and membrane saturation and blotting. Then, membranes were incubated in the dark with 1 μg/mL mouse monoclonal antibody (MoAb) anti-COX-1 and rabbit polyclonal Ab anti-COX-2 (1:1000) (both from AbCam, Cambridge, UK), rabbit polyclonal Ab anti p-IkB-α (1:200), mouse polyclonal Ab anti β-actin (1:500) (all from Santa Cruz Biotechnology), mouse MoAb anti-glial fibrillary acidic protein (GFAP) (1:200) and mouse mAb anti-ionized calcium-binding adapter molecule-1 (Iba-1) (1:200) (both from Merck Millipore) overnight at 4° C. The membranes were washed with 0.1% Tween 20-PBS (for 20 min, 3 times) and then incubated with the secondary antibody diluted 1:2000 for 60 min. Bands were visualized by chemiluminescence detection (Invitrogen, Milan, Italy). The β-actin level was used as a protein loading control. For tissue analysis, obtained bands were normalized to the level of β-actin performed for each cerebral area tested. For cell cultures the bands were normalized to the β-actin level in each experimental condition.
In general terms: A western blot detects proteins with antibodies after separation by electrophoresis.

Data set [4] concerns the target COX-2 (Mus musculus (Mouse), UniProt Q05769). The experiment in a line: COX-2 expression in LPS-treated BV2 microglial cells, western blotting. It is filed as cell-based. The note with it: LPS-stimulated BV2 cells. The method, then:
as §4, §5
After electrophoresis, the resolved proteins were transferred from the gel to nitrocellulose membranes. A blotting buffer [20 mMTris/150 mM glycine, pH=8.0, 20% (v/v) methanol] was used for gel and membrane saturation and blotting. […]

For another data set, the system named is PGE2. The experiment in a line: PGE2 release in LPS-stimulated BV2 microglial cells, competitive binding immunoassay. It counts as cell-based. The following applies: for PGE2 release (ng/ml) at 48 h: LPS-stimulated BV2 cells; for PGE2 production reduction: LPS-treated BV2 cells. The method, then: Microglial cells were cultured in 6-well plates at a density of 3×10^6 cells/well. […] The cultures were maintained at 37° C. for 24 and 48 h in a humidified air containing a 5% CO2. PGE2 levels were determined in the supernatant using a competitive binding immunoassay (Cayman Chemical, Ann Arbor, MI, USA) following the manufacturer's instructions. Unstimulated cells were included as a control. PGE2 amount determination in the brain was performed in the tissue extracts, according to the manufacturer's instructions. The optical density was measured at λ=405-420 nm with precision microplate reader and the amount of PGE2 (ng/mL) was calculated using a PGE2 standard curve.

COX-2 (Homo sapiens, UniProt P35354), sequence (P35354 18-604 limits assumed): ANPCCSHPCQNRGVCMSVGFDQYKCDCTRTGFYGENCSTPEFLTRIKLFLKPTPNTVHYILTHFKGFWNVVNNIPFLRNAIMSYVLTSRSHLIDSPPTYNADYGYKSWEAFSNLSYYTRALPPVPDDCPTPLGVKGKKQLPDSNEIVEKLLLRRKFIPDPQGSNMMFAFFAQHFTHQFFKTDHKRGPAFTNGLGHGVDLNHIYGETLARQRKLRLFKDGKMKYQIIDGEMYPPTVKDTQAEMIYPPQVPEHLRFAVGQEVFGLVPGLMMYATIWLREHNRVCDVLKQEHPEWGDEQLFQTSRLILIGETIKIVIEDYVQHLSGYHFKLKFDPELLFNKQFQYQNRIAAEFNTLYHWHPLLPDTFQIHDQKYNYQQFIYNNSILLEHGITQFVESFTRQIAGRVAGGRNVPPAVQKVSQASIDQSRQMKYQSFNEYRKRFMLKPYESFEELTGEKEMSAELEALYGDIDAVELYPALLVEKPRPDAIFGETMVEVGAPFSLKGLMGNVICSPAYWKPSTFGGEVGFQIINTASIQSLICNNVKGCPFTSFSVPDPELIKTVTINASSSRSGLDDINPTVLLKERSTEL

A word on the inhibition: it is how much of the control response was suppressed. Low readings indicate a weak effect, high ones a strong effect. Broadly, the IC50 is the concentration that gives 50% inhibition. Low readings indicate greater potency in that assay, high ones weaker potency in that assay. What is called Papp A→B is how fast a substance crosses the layer from the apical side. A word on the Papp B→A: it is the apparent permeability from the basolateral to the apical side of a cell layer. At COX-2 [1] (at 50 μM, the highest concentration tested), `COc1ccc(-c2noc(CC(=O)OCC3OC(O)C(O)C(O)C3O)c2-c2ccc(OC)cc2)cc1` [GALMOF0, ((2S,3R,4S,6R)-3,4,5,6-tetrahydroxytetrahydro-2H-pyrano-2-yl-) methyl-(2-(3,4-di(4-metoxyphenyl)isoxazol-5-yl)acetate] showed an inhibition at 50 µM of 87%. At COX-2 [1] (human cyclooxygenase), this compound yielded an IC50 of 3.1 µM. The “Papp B → A, Phloretin” value in the data set with Caco-2 cells (in the presence of 100 mM Phloretin) was determined as 61 ×10⁻⁶ cm/s. Moreover, the “reduction of the basolateral to apical flux (Papp B→A) in the presence of phloretin” value in the data set with Caco-2 cells (phloretin vs alone) is 30%. In addition, the apical-to-basolateral permeability (Papp A→B) in the data set on GLUT-1 (compound alone, read-out: Papp A → B) amounted to 38 ×10⁻⁶ cm/s; with GLUT-1 (with phloretin (GLUT-1 inhibitor), in Phloretin, read-out: Papp A → B, Phloretin) it was 36.8 ×10⁻⁶ cm/s. The basolateral-to-apical permeability (Papp B→A) in the data set on GLUT-1 (compound alone, read-out: Papp B → A) worked out at 87.5 ×10⁻⁶ cm/s; in the data set with GLUT-1 (with phloretin (GLUT-1 inhibitor), in Phloretin, read-out: Papp B → A, Phloretin), 61 ×10⁻⁶ cm/s. Moreover, the “chemical stability, chromatogram profile” value in data set [2] is “no variation of the chromatogram profile was observed”. Besides, the “Cmicr, concentration after the incubation” value in [3] (incubated with only the microsomes, 30 min) was 70.51 mAU*s. In data set [3] (incubated with the microsomes and the NADPH regeneration system, 30 min), the “Cmicr+NADPH, concentration after the incubation” value turned out to be 68.02 mAU*s. Further, the “residual GALMOF0 after 30 min of treatment with microsomes” value in data set [3] (rat liver microsomes 1 mg/ml, NADPH regeneration system, 10 μM, 37° C.) came out at 96%.

On to `Cc1onc(-c2ccc(Cl)o2)c1-c1ccccc1` [Compound P6, 3-(5-chlorofuran-2-yl)-5-methyl-4-phenylisoxazole], for which, in the data set with BV2 microglial cells, the cell toxicity entry is on record as “No cell toxicity”. The COX-1 expression levels result at COX-1 (BV2 cells, 48 h of incubation with LPS, 1 h pre-treated) is “significantly reduced”. Besides, the COX-1 expression reduction on COX-1 (0.5 μM) was 67%; on COX-1 (1.0 μM) it was 79%. Besides, on COX-2 [4], the COX-2 protein levels result is reported as “unaffected”. The “PGE2 release (ng/ml) at 48 h” value turned out to be 0.21 ng/mL with PGE2 (0.5 μM inhibitor + LPS) and 0.12 ng/mL in the data set on PGE2 (1 μM inhibitor + LPS). In addition, the PGE2 production reduction in the data set with PGE2 (at 0.5 μM as printed in the text) is on record as 78%; in the data set with PGE2 (at 1 μM as printed in the text) it was 88%.
